From patent US11613546B2, “Substituted pyridotriazine compounds and uses thereof” (Gilead Sciences, Inc., priority 2021, dated 2023) come the findings set out here.

Read-outs that look alike come from different tables or passages of the source.

As usually defined, the CC50 is the concentration that lowers cell viability or growth by half.

Holding throughout (format): cell-based
Data set [1] relates to HIV-1 (IIIB). Put plainly: Antiviral assay in MT-4 cells. The conditions noted are these: Human immunodeficiency virus 1, IIIB, MT4, 120 h. As to the method:
Antiviral Assay in MT-4 Cells
(§1) Compounds were tested in a high-throughput 384-well assay format for their ability to inhibit the replication of HIV-1 (IIIB) in MT-4 cells. Compounds were serially diluted (1:3) in DMSO on 384-well polypropylene plates and further diluted 200-fold into complete RPMI media (10% FBS, 1% P/S) using the Biotek Micro Flow and Labcyte ECHO acoustic dispenser. Each plate contained up to 8 test compounds, with negative (No Drug Control) and 5 μM AZT positive controls. MT-4 cells were pre-infected with 10 μL of either RPMI (mock-infected) or a fresh 1:250 dilution of HIV-1 IIIB concentrated virus stock. Infected and uninfected MT-4 cells were further diluted in complete RPMI media and added to each plate using a Micro Flow dispenser. After 5 days incubation in a humidified and temperature controlled incubator (37° C.), Cell Titer Glo (Promega) was added to the assay plates and chemiluminescence read using an Envision plate-reader. EC50 values were defined as the compound concentration that causes a 50% decrease in luminescence signal, and were calculated using a sigmoidal dose-response model to generate curve fits.

Data set [2] is described as follows: Cytotoxicity assay in MT-4 cells. The settings on record: human, uninfected MT-4 cells, 5 days, Cell Titer Glo; read-out: CC50. As to the method:
as §1, with “fits. Cytotoxicity Assay in MT-4 Cells Assays were performed as above except uninfected MT-4 cells were added to each well containing test compound. In addition, 10 μM puromycin was added to the last column of each assay plate to assess a base level of cytotoxicity.” for “fits.”
(ATP-based viability assays read luminescence as a measure of living cells.)

In data set [3] the test system is pLai RLuc reporter virus. Put plainly: HIV MT-4 serum shift antiviral reporter assay. The conditions noted are these: Human immunodeficiency virus 1, 72 h. As to the method: To quantify the amount of protein binding to human serum, compounds were serially diluted (1:3) in DMSO and acoustically transferred onto 384-well assay plates via a Labcyte ECHO robot. Each plate contained up to 8 test compounds, including negative and positive controls, (DMSO, 5 μM AZT respectively). Assay plates were prepared in duplicate, and tested in either CCM (cell culture media) or HS/CCM (human serum/cell culture media). MT-4 cells were first pre-infected with pLai RLuc reporter virus for 2 h at 37° C., then further diluted in either CCM (RPMI media, 10% FBS, 1% P/S) or HS/CCM (RPMI media, 10% FBS, 50% HS, 1% P/S), and subsequently added to each plate using a Biotek Micro Flow dispenser. After a 72-h incubation in a humidified and temperature controlled incubator (37° C.), Renilla Glo (Promega) was added to all assay plates and chemiluminescence read using an Envision plate-reader. EC50 values were defined as the compound concentration that causes a 50% decrease in luminescence signal, and were calculated using a sigmoidal dose-response model to generate curve fits. To determine the amount of protein binding, EC50 fold shifts (or EC50 shifts) were calculated by dividing EC50 (HS/CCM)/EC50 (CCM).
(A reporter such as luciferase makes a cellular process visible.)

Setting [4] is: read-out: RLUC 50% HS (nM), HS/CCM: 50% human serum, 72 h, Renilla Glo.
Where [5] appears, read: read-out: RLUC CCM (nM), cell culture media (RPMI, 10% FBS), 72 h, Renilla Glo.
Where [6] appears, read: HIV-1 IIIB infected MT-4 cells, 5 days, Cell Titer Glo, read-out: MT4 EC50.

`C[C@@H]1C[C@@H](C(F)F)[C@H](C)N2CN1n1cc(C(=O)NCc3c(F)cc(F)cc3F)c(=O)c(O)c1C2=O` [Example C56, (1S,2R,4R,5S)-4-(difluoromethyl)-8-hydroxy-2,5-dimethyl-7,9-dioxo-N-(2,4,6-trifluorobenzyl)-2,3,4,5,7,9-hexahydro-1,6-methanopyrido[1,2-b][1,2,5]triazonine-10-carboxamide]: the EC50 in data set [1] (read-out: MT4 EC50 (nM)) is 1.1 nM; in data set [3] (setting [4]), 24.9 nM; in data set [3] (setting [5]) it was 0.52 nM. Further, in data set [2], the 50% cytotoxic concentration (CC50) at 5 days worked out at 10.1 µM.
As for `C[C@@H]1C[C@@H](CF)[C@H](C)N2CN1n1cc(C(=O)NCc3c(F)cc(F)cc3F)c(=O)c(O)c1C2=O` [Example C57, (1S,2R,4R,5S)-4-(fluoromethyl)-8-hydroxy-2,5-dimethyl-7,9-dioxo-N-(2,4,6-trifluorobenzyl)-2,3,4,5,7,9-hexahydro-1,6-methanopyrido[1,2-b][1,2,5]triazonine-10-carboxamide], the results for the EC50 in data set [1] (setting [6]), in data set [3] (setting [4]) and in data set [3] (setting [5]) were 1.2 nM, 11.6 nM and 0.27 nM, respectively. The CC50 at 5 days in data set [2] stood at 8.93 µM.
The corresponding values for `C[C@H]1[C@@H](F)C[C@H](C)N2CN1C(=O)c1c(O)c(=O)c(C(=O)NCc3ccc(F)cc3F)cn12` [Example C58, (1S,2S,4S,5S)—N-(2,4-difluorobenzyl)-4-fluoro-8-hydroxy-2,5-dimethyl-7,9-dioxo-2,3,4,5,7,9-hexahydro-1,6-methanopyrido[1,2-b][1,2,5]triazonine-10-carboxamide] are 1.5 nM, 294 nM, 0.28 nM and 11.3 µM.
As for `C[C@@H]1C=C[C@@H](C)N2CN1C(=O)c1c(O)c(=O)c(C(=O)NCc3c(F)cc(F)cc3F)cn12` [Example C64, (1S,2R,5R)-8-hydroxy-2,5-dimethyl-7,9-dioxo-N-(2,4,6-trifluorobenzyl)-2,5,7,9-tetrahydro-1,6-methanopyrido[1,2-b][1,2,5]triazonine-10-carboxamide], the results for the EC50 in data set [1] (setting [6]), in data set [3] (setting [4]) and in data set [3] (setting [5]) were 0.8 nM, 150 nM and 0.27 nM, respectively. Moreover, in data set [2], the CC50 at 5 days was determined as 11.4 µM.
The corresponding values for `C[C@@H]1CC[C@@H](C)N2CN1C(=O)c1c(O)c(=O)c(C(=O)NCc3c(F)cc(F)cc3F)cn12` [Example C65, (1S,2R,5R)-8-hydroxy-2,5-dimethyl-7,9-dioxo-N-(2,4,6-trifluorobenzyl)-2,3,4,5,7,9-hexahydro-1,6-methanopyrido[1,2-b][1,2,5]triazonine-10-carboxamide] are 1.8 nM, 63.8 nM, 0.44 nM and 15.4 µM.
The like results for `C[C@@H]1CC[C@@H](C)N2CN1C(=O)c1c(O)c(=O)c(C(=O)NCc3ccc(F)cc3F)cn12` [Example C67, (1S,2R,5R)—N-(2,4-difluorobenzyl)-8-hydroxy-2,5-dimethyl-7,9-dioxo-2,3,4,5,7,9-hexahydro-1,6-methanopyrido[1,2-b][1,2,5]triazonine-10-carboxamide] were, in that order, 1.9 nM, 35.3 nM, 0.51 nM and 25.5 µM.
Take `C[C@@H]1C=CCN2CN1n1cc(C(=O)NCc3c(F)cc(F)cc3F)c(=O)c(O)c1C2=O` [Example C70, (1S,2R)-8-hydroxy-2-methyl-7,9-dioxo-N-(2,4,6-trifluorobenzyl)-2,5,7,9-tetrahydro-1,6-methanopyrido[1,2-b][1,2,5]triazonine-10-carboxamide]: the EC50 came to 1.2 nM in data set [1] (setting [6]), 11.5 nM in data set [3] (setting [4]) and 0.54 nM in data set [3] (setting [5]). Besides, the CC50 at 5 days in data set [2] stood at 11.6 µM.
The corresponding values for `CC[C@@H]1CC[C@H](C)N2CN1n1cc(C(=O)NCc3c(F)cc(F)cc3F)c(=O)c(O)c1C2=O` [Example C73, (1S,2R,5S)-2-ethyl-8-hydroxy-5-methyl-7,9-dioxo-N-(2,4,6-trifluorobenzyl)-2,3,4,5,7,9-hexahydro-1,6-methanopyrido[1,2-b][1,2,5]triazonine-10-carboxamide] are 0.8 nM, 276 nM, 0.63 nM and 7.65 µM.
Turning to `CC(C)[C@@H]1C=C[C@H](C)N2CN1n1cc(C(=O)NCc3c(F)cc(F)cc3F)c(=O)c(O)c1C2=O` [Example C74, (1S,2R,5S)-8-hydroxy-2-isopropyl-5-methyl-7,9-dioxo-N-(2,4,6-trifluorobenzyl)-2,5,7,9-tetrahydro-1,6-methanopyrido[1,2-b][1,2,5]triazonine-10-carboxamide], the EC50 in data set [1] (setting [6]) was 0.9 nM; in data set [3] (setting [4]) it was 325 nM; in data set [3] (setting [5]), 0.47 nM. Further, the CC50 at 5 days in data set [2] came out at 6.81 µM.
The corresponding values for `CC(C)[C@@H]1CC[C@H](C)N2CN1n1cc(C(=O)NCc3c(F)cc(F)cc3F)c(=O)c(O)c1C2=O` [Example C75, (1S,2S,5S)-8-hydroxy-2-isopropyl-5-methyl-7,9-dioxo-N-(2,4,6-trifluorobenzyl)-2,3,4,5,7,9-hexahydro-1,6-methanopyrido[1,2-b][1,2,5]triazonine-10-carboxamide] are 2 nM, 277 nM, 1.02 nM and 10.9 µM.
The like results for `C[C@H]1CC[C@@H](CF)N2CN1C(=O)c1c(O)c(=O)c(C(=O)NCc3c(F)cc(F)cc3F)cn12` [Example C77, (1S,2S,5S)-2-(fluoromethyl)-8-hydroxy-5-methyl-7,9-dioxo-N-(2,4,6-trifluorobenzyl)-2,3,4,5,7,9-hexahydro-1,6-methanopyrido[1,2-b][1,2,5]triazonine-10-carboxamide] were, in that order, 2 nM, 296 nM, 1.14 nM and 15.7 µM.
The like results for `C[C@H]1CC[C@@H](C(F)F)N2CN1C(=O)c1c(O)c(=O)c(C(=O)NCc3ccc(F)cc3F)cn12` [Example C81, (1S,2S,5S)—N-(2,4-difluorobenzyl)-2-(difluoromethyl)-8-hydroxy-5-methyl-7,9-dioxo-2,3,4,5,7,9-hexahydro-1,6-methanopyrido[1,2-b][1,2,5]triazonine-10-carboxamide] were, in that order, 1.5 nM, 723 nM, 0.48 nM and 13.7 µM.
Regarding `COC[C@@H]1C=C[C@H](C)N2CN1n1cc(C(=O)NCc3ccc(F)cc3F)c(=O)c(O)c1C2=O` [Example C82, (1S,2S,5S)—N-(2,4-difluorobenzyl)-8-hydroxy-2-(methoxymethyl)-5-methyl-7,9-dioxo-2,5,7,9-tetrahydro-1,6-methanopyrido[1,2-b][1,2,5]triazonine-10-carboxamide], the EC50 in data set [1] (setting [6]) was 1.3 nM; in data set [3] (setting [4]), 75 nM; in data set [3] (setting [5]) it was 0.73 nM. Besides, the CC50 at 5 days in data set [2] turned out to be 16.8 µM.
The like results for `COC[C@@H]1CC[C@H](C)N2CN1n1cc(C(=O)NCc3ccc(F)cc3F)c(=O)c(O)c1C2=O` [Example C83, (1S,2S,5S)—N-(2,4-difluorobenzyl)-8-hydroxy-2-(methoxymethyl)-5-methyl-7,9-dioxo-2,3,4,5,7,9-hexahydro-1,6-methanopyrido[1,2-b][1,2,5]triazonine-10-carboxamide] were, in that order, 3.6 nM, 261 nM, 1.97 nM and 30.5 µM.
